Measurements from patent US9296723B2, “NAMPT inhibitors” (AbbVie Inc., priority 2012, dated 2016).

Legend:
NAMPT [1] = target: T1, NAMPT (Homo sapiens, UniProt P43490); test: TR-FRET Binding Assay of NAMPT with PRPP; conditions: 2 nM NAMPT, 2 nM probe, 200 µM PRPP and 2.5 mM ATP, equilibrated 16 hours
In short: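 Substrates present: PRPP at 200 µM and ATP at 2.5 mM, final, alongside 2 nM enzyme, 2 nM tracer and 1 nM terbium anti-His donor in 2% DMSO. A 16-hour equilibration preceded the time-resolved FRET read, allowing compounds to be enzymatically modified.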

NAMPT [2] = target: T1, NAMPT; test: Time-Resolved Fluorescence Resonance Energy Transfer (TR-FRET) Binding Assay of NAMPT; conditions: 6.8 nM NAMPT, 200 nM probe, equilibrated 3 hours, no substrates
In short: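 IC50s come from four-parameter logistic fits of control-normalized Em520/Em495 TR-FRET ratios (Ex 337 nm) against compound concentration. Before reading, enzyme, probe, antibody and compound equilibrated for 3 h at room temperature.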

PC3 cells = test: NAMPT Cell Proliferation Assay (Cell Titer Glo); assay type: cell-based; conditions: Homo sapiens, PC-3, 120 h, incubated 5 days, cell viability
In short: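 Viability measured by Cell Titer Glo luminescence after 5-day exposure of attached PC3 cells to compound, dosed as 10-fold serial dilutions ([…]) in RPMI/10% FBS at 37 °C and 5% CO2. Percent inhibition fitted to sigmoidal dose-response curves for IC50.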

T1 sequence (P43490 whole entry): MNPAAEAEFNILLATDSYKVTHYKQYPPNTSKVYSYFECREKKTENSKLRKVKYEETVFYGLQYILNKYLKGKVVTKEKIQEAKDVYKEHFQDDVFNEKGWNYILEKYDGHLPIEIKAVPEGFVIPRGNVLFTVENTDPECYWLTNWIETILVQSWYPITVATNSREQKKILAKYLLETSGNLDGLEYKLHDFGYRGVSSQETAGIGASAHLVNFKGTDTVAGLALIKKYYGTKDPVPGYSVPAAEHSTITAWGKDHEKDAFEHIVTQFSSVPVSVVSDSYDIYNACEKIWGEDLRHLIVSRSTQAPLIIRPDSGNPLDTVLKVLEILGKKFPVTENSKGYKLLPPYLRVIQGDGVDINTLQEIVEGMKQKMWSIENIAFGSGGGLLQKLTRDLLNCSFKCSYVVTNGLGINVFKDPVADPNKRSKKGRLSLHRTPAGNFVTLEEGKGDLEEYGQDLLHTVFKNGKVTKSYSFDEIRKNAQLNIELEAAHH

Compound | IC50 (NAMPT [1]) [nM] | IC50 (NAMPT [2]) [nM] | IC50 (PC3 cells) [nM]
CCCC(=O)N1CCC(c2ccc(NC(=O)N3CC(c4cccnc4)C3)cc2)CC1 [Example 172, N-[4-(1-butanoylpiperidin-4-yl)phenyl]-3-(pyridin-3-yl)azetidine-1-carboxamide] | 0.206 | 5.65 | 34.5
COCCOCC(=O)N1CCC(c2ccc(NC(=O)N3CC(c4cccnc4)C3)cc2)CC1 [Example 176, N-(4-{1-[(2-methoxyethoxy)acetyl]piperidin-4-yl}phenyl)-3-(pyridin-3-yl)azetidine-1-carboxamide] | 0.35 | 65.5 | 88.9
O=C(CC1CCCCC1)N1CCC(c2ccc(NC(=O)N3CC(c4cccnc4)C3)cc2)CC1 [Example 178, N-{4-[1-(cyclohexylacetyl)piperidin-4-yl]phenyl}-3-(pyridin-3-yl)azetidine-1-carboxamide] | 0.42 | 13.9 | 75
O=C(Nc1ccc(C2CCN(C(=O)C3CCCC3)CC2)cc1)N1CC(c2cccnc2)C1 [Example 180, N-{4-[1-(cyclopentylcarbonyl)piperidin-4-yl]phenyl}-3-(pyridin-3-yl)azetidine-1-carboxamide] | 0.284 | 21.3 | 67.7
O=C(Nc1ccc(C2CCN(C(=O)c3ccoc3)CC2)cc1)N1CC(c2cccnc2)C1 [Example 182, N-{4-[1-(furan-3-ylcarbonyl)piperidin-4-yl]phenyl}-3-(pyridin-3-yl)azetidine-1-carboxamide] | 0.219 | 3.68 | 6.95
CC(=O)N1CCC(c2ccc(NC(=O)N3CC(c4cccnc4)C3)cc2)CC1 [Example 183, N-[4-(1-acetylpiperidin-4-yl)phenyl]-3-(pyridin-3-yl)azetidine-1-carboxamide] | 0.38 | 22 | 63.3
COCC(=O)N1CCC(c2ccc(NC(=O)N3CC(c4cccnc4)C3)cc2)CC1 [Example 184, N-{4-[1-(methoxyacetyl)piperidin-4-yl]phenyl}-3-(pyridin-3-yl)azetidine-1-carboxamide] | 0.305 | 18.5 | 61.2
O=C(Nc1ccc(C2CCN(C(=O)c3ccsc3)CC2)cc1)N1CC(c2cccnc2)C1 [Example 185, 3-(pyridin-3-yl)-N-{4-[1-(thiophen-3-ylcarbonyl)piperidin-4-yl]phenyl}azetidine-1-carboxamide] | 0.228 | 3.23 | 9.18
O=C(CN1CCOCC1)N1CCC(c2ccc(NC(=O)N3CC(c4cccnc4)C3)cc2)CC1 [Example 187, N-{4-[1-(morpholin-4-ylacetyl)piperidin-4-yl]phenyl}-3-(pyridin-3-yl)azetidine-1-carboxamide] | 0.292 | 39.3 | 86.3
O=C(Nc1ccc(C2CCN(C(=O)c3cccs3)CC2)cc1)N1CC(c2cccnc2)C1 [Example 188, 3-(pyridin-3-yl)-N-{4-[1-(thiophen-2-ylcarbonyl)piperidin-4-yl]phenyl}azetidine-1-carboxamide] | 0.188 | 2.1 | 2.25
Cn1cccc1C(=O)N1CCC(c2ccc(NC(=O)N3CC(c4cccnc4)C3)cc2)CC1 [Example 191, N-(4-{1-[(1-methyl-1H-pyrrol-2-yl)carbonyl]piperidin-4-yl}phenyl)-3-(pyridin-3-yl)azetidine-1-carboxamide] | 0.291 | 4.27 | 7.46
CCC(=O)N1CCC(c2ccc(NC(=O)N3CC(c4cccnc4)C3)cc2)CC1 [Example 192, N-[4-(1-propanoylpiperidin-4-yl)phenyl]-3-(pyridin-3-yl)azetidine-1-carboxamide] | 0.255 | 23 | 63.2
CC1(C(=O)N2CCC(c3ccc(NC(=O)N4CC(c5cccnc5)C4)cc3)CC2)CC1 [Example 193, N-(4-{1-[(1-methylcyclopropyl)carbonyl]piperidin-4-yl}phenyl)-3-(pyridin-3-yl)azetidine-1-carboxamide] | 0.243 | 14.4 | 13.7
O=C(Nc1ccc(C2CCN(C(=O)c3nccs3)CC2)cc1)N1CC(c2cccnc2)C1 [Example 195, 3-(pyridin-3-yl)-N-{4-[1-(1,3-thiazol-2-ylcarbonyl)piperidin-4-yl]phenyl}azetidine-1-carboxamide] | 0.281 | 4.19 | 8.66
O=C(CC1CCCC1)N1CCC(c2ccc(NC(=O)N3CC(c4cccnc4)C3)cc2)CC1 [Example 196, N-{4-[1-(cyclopentylacetyl)piperidin-4-yl]phenyl}-3-(pyridin-3-yl)azetidine-1-carboxamide] | 0.281 | 15 | 64.6
CC(C)C(C)C(=O)N1CCC(c2ccc(NC(=O)N3CC(c4cccnc4)C3)cc2)CC1 (stereo not drawn) [Example 197, N-{4-[1-(2,3-dimethylbutanoyl)piperidin-4-yl]phenyl}-3-(pyridin-3-yl)azetidine-1-carboxamide] | 0.505 | 17.8 | 22.7
CCCCC(=O)N1CC(c2ccc(NC(=O)N3CC(c4cccnc4)C3)cc2)C1 [Example 198, N-[4-(1-pentanoylazetidin-3-yl)phenyl]-3-(pyridin-3-yl)azetidine-1-carboxamide] | 0.341 | 64.2 | 47.6
O=C(CC1C[C@@H]2CC[C@H]1C2)N1CC(c2ccc(NC(=O)N3CC(c4cccnc4)C3)cc2)C1 (stereo partly drawn) [Example 200, N-(4-{1-[(1S,4R)-bicyclo[2.2.1]hept-2-ylacetyl]azetidin-3-yl}phenyl)-3-(pyridin-3-yl)azetidine-1-carboxamide] | 0.382 | 36.4 | 17
CCC(C)CC(=O)N1CC(c2ccc(NC(=O)N3CC(c4cccnc4)C3)cc2)C1 (stereo not drawn) [Example 202, N-{4-[1-(3-methylpentanoyl)azetidin-3-yl]phenyl}-3-(pyridin-3-yl)azetidine-1-carboxamide] | 0.327 | 51.1 | 65.5

Further compounds by falling IC50 (NAMPT [1]), results first:

IC50 (NAMPT [1]) [nM] | IC50 (NAMPT [2]) [nM] | IC50 (PC3 cells) [nM] | Compound
0.592 | 248 | 690 | O=C(CN1CCCC1)N1CCC(c2ccc(NC(=O)N3CC(c4cccnc4)C3)cc2)CC1 [Example 194, 3-(pyridin-3-yl)-N-{4-[1-(pyrrolidin-1-ylacetyl)piperidin-4-yl]phenyl}azetidine-1-carboxamide]
0.403 | 30.7 | 67.5 | CC(=O)N[C@@H](CC(C)C)C(=O)N1CCC(c2ccc(NC(=O)N3CC(c4cccnc4)C3)cc2)CC1 [Example 175, N-{4-[1-(N-acetyl-L-leucyl)piperidin-4-yl]phenyl}-3-(pyridin-3-yl)azetidine-1-carboxamide]
0.393 | 90.4 | 56.4 | CCOCC(=O)N1CCC(c2ccc(NC(=O)N3CC(c4cccnc4)C3)cc2)CC1 [Example 173, N-{4-[1-(ethoxyacetyl)piperidin-4-yl]phenyl}-3-(pyridin-3-yl)azetidine-1-carboxamide]
0.345 | 2.93 | 3.45 | Cc1ccsc1C(=O)N1CCC(c2ccc(NC(=O)N3CC(c4cccnc4)C3)cc2)CC1 [Example 186, N-(4-{1-[(3-methylthiophen-2-yl)carbonyl]piperidin-4-yl}phenyl)-3-(pyridin-3-yl)azetidine-1-carboxamide]
0.325 | 20.8 | 24.4 | CC(C)CC(=O)N1CCC(c2ccc(NC(=O)N3CC(c4cccnc4)C3)cc2)CC1 [Example 174, N-{4-[1-(3-methylbutanoyl)piperidin-4-yl]phenyl}-3-(pyridin-3-yl)azetidine-1-carboxamide]
0.304 | 15.8 | 74 | O=C(Nc1ccc(C2CCN(C(=O)C3CCCCC3)CC2)cc1)N1CC(c2cccnc2)C1 [Example 177, N-{4-[1-(cyclohexylcarbonyl)piperidin-4-yl]phenyl}-3-(pyridin-3-yl)azetidine-1-carboxamide]
0.282 | 2 | 5.83 | O=C(Nc1ccc(C2CCN(C(=O)c3ccco3)CC2)cc1)N1CC(c2cccnc2)C1 [Example 190, N-{4-[1-(furan-2-ylcarbonyl)piperidin-4-yl]phenyl}-3-(pyridin-3-yl)azetidine-1-carboxamide]
0.256 | 8.06 | 24.3 | CC1(C(=O)N2CCC(c3ccc(NC(=O)N4CC(c5cccnc5)C4)cc3)CC2)CCCCC1 [Example 181, N-(4-{1-[(1-methylcyclohexyl)carbonyl]piperidin-4-yl}phenyl)-3-(pyridin-3-yl)azetidine-1-carboxamide]
0.249 | 32.5 | 76.9 | O=C(CCC(F)(F)F)N1CCC(c2ccc(NC(=O)N3CC(c4cccnc4)C3)cc2)CC1 [Example 179, 3-(pyridin-3-yl)-N-{4-[1-(4,4,4-trifluorobutanoyl)piperidin-4-yl]phenyl}azetidine-1-carboxamide]
0.21 | 22.6 | 21.7 | Cc1ccc(C(=O)N2CCC(c3ccc(NC(=O)N4CC(c5cccnc5)C4)cc3)CC2)s1 [Example 189, N-(4-{1-[(5-methylthiophen-2-yl)carbonyl]piperidin-4-yl}phenyl)-3-(pyridin-3-yl)azetidine-1-carboxamide]
